Common to all, as to format: functional, cell-based
The subject of one assay is MCF7. The assay is described as follows: Cytotoxicity against human MCF7 cells after 48 hrs by MTT method. As to conditions: MCF7, 48 h. Background: Formazan colour is commonly taken as a measure of viable cells.
The next assay relates to HL-60. The assay is described as follows: Cytotoxicity against human HL60 cells after 48 hrs by MTT method. The note with it: HL-60, 48 h.
The subject of the next assay is SW480. In words: Cytotoxicity against human SW480 cells after 48 hrs by MTT method. As to conditions: SW480, 48 h.
The test system of the next assay is A549. In words: Cytotoxicity against human A549 cells after 48 hrs by MTT method. As to conditions: A549, 48 h.
The test system of another assay is SMMC-7721. In words: Cytotoxicity against human SMMC7721 cells after 48 hrs by MTT method. As to conditions: SMMC-7721, 48 h.

On to `C=C1[C@@H](O)[C@]23[C@H](O)[C@H]1CC[C@H]2[C@@]12C(=O)O[C@]3(O)[C@@H](O)[C@@H]1C(C)(C)CC[C@@H]2OC(C)=O`, for which the IC50 with MCF7, in the assay with HL-60, with SW480, in the assay with A549 and in the assay with SMMC-7721 was > 10 µM in each case.
Turning to `C=C1C(=O)[C@]23C[C@H]1CC[C@H]2[C@@]12CO[C@@]3(O)[C@@H](O)[C@@H]1C(C)(C)CC[C@@H]2OC(C)=O` [EFFUSANIN B], the half-inhibitory concentration (IC50) (commonly the midpoint of a concentration-inhibition curve) is 0.7 µM in the assay with MCF7; 0.7 µM in the assay on HL-60; 0.8 µM in the assay on SW480; 3.5 µM in the assay with A549; 1 µM with SMMC-7721.
`C=C1[C@@H](O)[C@@]23[C@H]4O[C@H]5O[C@]2(O)[C@@H](OC(C)=O)[C@@H]2C(C)(C)CCC[C@@]52[C@@H]3[C@@H](O)C[C@@H]14` [ISOADENOLIN A]: the IC50 with MCF7, in the assay on HL-60, in the assay with SW480, with A549 and with SMMC-7721 was > 10 µM each time.
In the case of `C=C1C(=O)[C@@]23[C@H]4O[C@H]5O[C@]2(O)[C@@H](O)[C@@H]2C(C)(C)CC[C@H](OC(C)=O)[C@]52[C@@H]3CC[C@@H]14` [ISOADENOLIN B], the half-inhibitory concentration (IC50) with MCF7, with HL-60, in the assay with SW480, with A549 and in the assay on SMMC-7721 was > 10 µM each time.
With `COC[C@H]1C(=O)[C@@]23[C@H]4O[C@H]5O[C@]2(O)[C@@H](O)[C@@H]2C(C)(C)CC[C@H](O)[C@]52[C@@H]3CC[C@@H]14` [ISOADENOLIN C], the IC50 with MCF7, with HL-60, in the assay on SW480, with A549 and in the assay on SMMC-7721 was > 10 µM throughout.
As for `COC[C@@H]1C(=O)[C@]23[C@H](O)[C@H]1C[C@H](O)[C@H]2[C@@]12CCCC(C)(C)[C@H]1[C@H](O)[C@@]3(O)O[C@@H]2OC` [ISOADENOLIN D], the IC50 in the assay on MCF7, in the assay on HL-60, with SW480, in the assay with A549 and in the assay with SMMC-7721 was > 10 µM each time.
Consider `C=C1[C@@H](O)[C@]23[C@H](O)[C@H]1C[C@H](O)[C@H]2[C@@]12CCCC(C)(C)[C@H]1[C@H](O)[C@@]3(O)O[C@@H]2OC` [ISOADENOLIN E], for which the half-maximal inhibitory concentration (IC50) in the assay on MCF7, with HL-60, in the assay with SW480, in the assay with A549 and in the assay on SMMC-7721 was > 10 µM each time.
For the compound `C=C1[C@@H](O)[C@]23[C@H](O)[C@H]1C[C@H](O)[C@H]2[C@@]12CCCC(C)(C)[C@H]1[C@H](OC(C)=O)[C@@]3(O)O[C@@H]2OC` [ISOADENOLIN F], the IC50 in the assay with MCF7, in the assay on HL-60, in the assay on SW480, in the assay on A549 and with SMMC-7721 was > 10 µM each time.
`C=C1[C@@H](O)[C@]23[C@H](O)[C@H]1C[C@H](OC(C)=O)[C@H]2[C@@]12CCCC(C)(C)[C@H]1[C@H](O)[C@@]3(O)O[C@@H]2OC` [ISOADENOLIN G]: the IC50 in the assay with MCF7, with HL-60, with SW480, with A549 and in the assay on SMMC-7721 was > 10 µM each time.
For the compound `C=C1C(=O)[C@]23[C@H](O)[C@H]1CC[C@H]2[C@@]12[C@H](OC)O[C@]3(O)[C@@H](O)[C@@H]1C(C)(C)CC[C@@H]2OC(C)=O` [ISOADENOLIN H], the IC50 in the assay with MCF7, in the assay with HL-60, with SW480, in the assay with A549 and in the assay on SMMC-7721 was > 10 µM in each case.
Turning to `C=C1C(=O)[C@]23C[C@H]1CC=C2[C@@]12CO[C@]3(O)[C@@H](O)[C@@H]1C(C)(C)CC[C@@H]2OC(C)=O` [ISOADENOLIN I], the IC50 with MCF7 came out at 2.6 µM; with HL-60, 2.6 µM; with SW480, 3.1 µM; in the assay on A549, 5 µM; in the assay on SMMC-7721 it was 3 µM.
As to `C=C1C(=O)[C@@]23C(=CC[C@@H]1[C@H]2O)[C@@]12CO[C@]3(O)[C@@H](O)[C@@H]1C(C)(C)CC[C@@H]2OC(C)=O` [ISOADENOLIN J], the IC50 in the assay on MCF7, in the assay with HL-60, in the assay with SW480, in the assay with A549 and in the assay on SMMC-7721 was > 10 µM throughout.
For `C=C1[C@H]2C[C@]3(C(=C[C@@H]2O)[C@@]24CO[C@]3(O)[C@@H](O)[C@@H]2C(C)(C)CC[C@@H]4OC(C)=O)[C@@H]1O` [ISOADENOLIN K], the IC50 in the assay on MCF7 is 3 µM; with HL-60, 3.5 µM; in the assay with SW480, 3.1 µM; in the assay with A549, 14.1 µM; with SMMC-7721, 5.7 µM.
The like results for `COC[C@H]1C(=O)[C@]23[C@H](O)[C@H]1CC[C@H]2[C@@]12CO[C@]3(O)[C@@H](O)[C@@H]1C(C)(C)CC[C@@H]2OC(C)=O` [LASIOKAURININ] were, in that order, 6 µM, 6.8 µM, 4.9 µM, 20.4 µM and 4.8 µM.
With `C=C1C(=O)[C@]23[C@H](O)[C@H]1CC[C@H]2[C@@]12CO[C@@]3(O)[C@@H](O)[C@@H]1C(C)(C)CC[C@@H]2OC(C)=O` [LASIOKAURIN], the half-inhibitory concentration (IC50) in the assay on MCF7 is 5.3 µM; with HL-60, 3.2 µM; with SW480, 2.3 µM; with A549, 7.6 µM; in the assay on SMMC-7721, 2 µM.
The corresponding values for `C=C1C(=O)[C@]23C[C@H]1C[C@@H](OC(C)=O)[C@H]2[C@]12CCCC(C)(C)[C@H]1[C@H](O)[C@@]3(O)OC2` [LONGIKAURIN E] are 1.9 µM, 1.8 µM, 2.4 µM, 3.9 µM and 1.9 µM.
The corresponding values for `C=C1C(=O)[C@@]23[C@@H]4O[C@H]5O[C@@]2(O)[C@@H](O)[C@@H]2C(C)(C)CCC[C@]52[C@@H]3[C@@H](O)C[C@@H]14` [MACROCALIN B] are 26.9 µM, 12.4 µM, 10.9 µM, 31.9 µM and 9.1 µM.
The like results for `CC(=O)O[C@H]1C(=O)[C@@]2(C)[C@H]([C@H](OC(=O)c3ccccc3)[C@]3(O)C[C@H](OC(=O)[C@H](O)[C@@H](NC(=O)c4ccccc4)c4ccccc4)C(C)=C1C3(C)C)[C@]1(OC(C)=O)CO[C@@H]1C[C@@H]2O` [PACLITAXEL] were, in that order, < 0.008 µM, 0.01 µM, < 0.008 µM, < 0.008 µM and < 0.008 µM.
Regarding `C=C1C(=O)[C@@]23[C@@H]4OC5O[C@@]2(O)[C@@H](O)[C@@H]2C(C)(C)CC[C@@H](O)[C@]52[C@@H]3CC[C@@H]14` [PONICIDIN], the IC50 with MCF7 came out at 16.3 µM; in the assay with HL-60, 7.4 µM; in the assay on SW480, 2.8 µM; with A549, 16.5 µM; with SMMC-7721, 5 µM.
Take `C=C1C(=O)[C@@]23[C@@H]4O[C@H]5O[C@@]2(O)[C@@H](O)[C@@H]2C(C)(C)CCC[C@]52[C@@H]3CC[C@@H]14` [XEROPHILUSIN B]: the IC50 in the assay on MCF7 came to 1.1 µM; in the assay on HL-60 it was 0.8 µM; in the assay with SW480 it was 0.9 µM; with A549 it was 2 µM; in the assay with SMMC-7721 it was 1.3 µM.
The like results for `C=C1C(=O)[C@]23[C@H](O)[C@H]1CC[C@H]2[C@@]12[C@H](O)O[C@]3(O)[C@@H](O)[C@@H]1C(C)(C)CC[C@@H]2OC(C)=O` [XEROPHILUSIN J] were, in that order, 9.7 µM, 7.6 µM, 2.7 µM, 21.7 µM and 4.6 µM.
Take `C=C1C(=O)[C@]23[C@H](O)[C@H]1CC[C@H]2[C@]12CCCC(C)(C)[C@H]1[C@H](O)[C@]3(O)OC2=O` [XEROPHILUSIN N]: the IC50 in the assay with MCF7 came to 7.9 µM; with HL-60, 3.8 µM; in the assay on SW480, 3.5 µM; with A549, 9.7 µM; in the assay on SMMC-7721, 3.6 µM.

The values above are taken from ChEMBL document CHEMBL1799954, “Structure and cytotoxicity of diterpenoids from Isodon adenolomus” (J Nat Prod, 2011).
